The results in this text go back to patent US20140088085A1, “Substituted Benzoazepines As Toll-Like Receptor Modulators” (ARRAY BIOPHARMA, INC, priority 2011, published 2014).

Assay [1] concerns human peripheral blood mononuclear cells (PBMCs). Description: Human PBMC assay: IL-8 production stimulated with CL075 (ELISA). The class given is cell-based. Particulars: 3 to 1000 nM antagonist 2 h, then CL075 100 ng/mL (400 nM) overnight, FIG. 1, one donor. As to the method: PBMCs contain a mixture of cells including monocytes and myeloid dendritic cells (mDCs) that express TLR8. […] The ability of TLR8 antagonists to inhibit […] production in human PBMCs was evaluated. […] Data shown in FIG. 1 are a representative experiment from one donor evaluated in duplicate culture wells. Increasing concentrations (from 3 to 1000 nM) of Compounds 3348, 2987, 3261, 3387, and 3448 (labeled as VTX-3348, VTX-2987, VTX-3261, VTX-3387, VTX-3448 in FIG. 1) were added to human PBMCs (50,000 cells/well in RPMI) and incubated for 2 hours in a 37° C. humidified CO2 incubator. […] At the end of the incubation, cells were centrifuged and cell culture supernatants were analyzed for IL-8 by ELISA (eBiosciene kit) per the manufacturer's instructions. The absorbance (OD 450 nm) representative of IL-8 levels is shown on the y-axis of FIG. 1.
The experiment shown in FIG. 1 was repeated in multiple donors and with additional TLR8 antagonist molecules (see FIG. 2). […] Percent inhibition is shown on the y-axis and concentrations of TLR8 antagonists (3-1000 nM) are shown on the x-axis in FIG. 2.

Assay [2] concerns the target T1, hTLR8 (Homo sapiens, UniProt Q9NR97).
T1 construct: host or cells: HEK293 cells stably transfected with hTLR8
T1 sequence (Q9NR97 27-1041): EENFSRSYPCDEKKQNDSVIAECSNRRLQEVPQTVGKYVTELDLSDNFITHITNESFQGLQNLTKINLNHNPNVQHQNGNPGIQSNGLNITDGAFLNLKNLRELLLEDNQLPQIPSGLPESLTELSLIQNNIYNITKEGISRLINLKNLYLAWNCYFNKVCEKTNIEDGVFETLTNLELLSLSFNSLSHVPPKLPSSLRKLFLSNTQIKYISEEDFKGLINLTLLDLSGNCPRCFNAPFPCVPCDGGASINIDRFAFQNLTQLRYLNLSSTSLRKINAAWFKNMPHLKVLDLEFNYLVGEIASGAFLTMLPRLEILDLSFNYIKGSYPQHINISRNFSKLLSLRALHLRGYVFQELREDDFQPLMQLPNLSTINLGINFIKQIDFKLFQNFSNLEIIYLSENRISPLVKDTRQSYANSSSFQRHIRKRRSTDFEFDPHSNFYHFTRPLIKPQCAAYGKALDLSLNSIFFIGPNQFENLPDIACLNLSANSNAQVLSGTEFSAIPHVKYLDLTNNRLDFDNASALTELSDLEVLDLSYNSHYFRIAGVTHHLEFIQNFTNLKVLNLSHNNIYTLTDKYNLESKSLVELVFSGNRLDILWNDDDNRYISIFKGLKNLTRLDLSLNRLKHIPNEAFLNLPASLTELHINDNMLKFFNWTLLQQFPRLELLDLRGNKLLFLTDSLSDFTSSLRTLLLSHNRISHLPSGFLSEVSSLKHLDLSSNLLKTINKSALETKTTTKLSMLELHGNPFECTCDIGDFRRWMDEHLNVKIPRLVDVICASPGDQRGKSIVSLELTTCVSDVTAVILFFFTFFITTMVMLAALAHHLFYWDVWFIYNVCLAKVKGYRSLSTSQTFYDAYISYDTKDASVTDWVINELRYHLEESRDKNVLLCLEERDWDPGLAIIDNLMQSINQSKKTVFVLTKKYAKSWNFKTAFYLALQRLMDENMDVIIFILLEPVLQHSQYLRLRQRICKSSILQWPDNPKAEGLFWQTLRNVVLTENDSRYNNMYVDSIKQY
Description: HEK-293 hTLR8 transfectant NF-κB SEAP reporter antagonist assay. Format: cell-based. As to the method:
The HEK-293 hTLR transfectant assay employs HEK293 cells stably transfected with various hTLRs and transiently co-transfected with a plasmid containing an NF-κB driven secreted embryonic alkaline phosphate (SEAP) reporter gene. Stimulation of TLRs activates their downstream signaling pathways and induces nuclear translocation of the transcription factor NF-κB. Reporter gene activity is then measured using a spectrophotometric assay.
For the TLR8 antagonist assays, cells are transiently transfected with the reporter gene on Day 1 per the supplier's instructions. Antagonist compounds are added to the cultures on Day 2 followed by addition of a TLR8 agonist approximately 2 hours later. Cultures are incubated overnight and SEAP activity is measured on Day 3.
In a typical assay, 50,000 HEK239 hTLR8 cells are seeded per culture well and transiently transfected with the SEAP reporter gene. Antagonists are added to cultures in culture medium and […] DMSO over a concentration range of 0.1 nanomolar to 10 micromolar. TLR8 agonists are added to cultures 2 hours later at a fixed concentration (e.g., 1 micromolar or 10 micromolar of Compound A) and cultures are then incubated for 16-24 hrs at 37° C. in a humidified CO incubator. Antagonists are also evaluated for activity in the absence of agonist.
TLR8 antagonist activity at 25 μM is presented in Table 2, where + denotes a % inhibition of 20-39, ++ denotes a % inhibition of 40-59, +++ denotes a % inhibition of 60-79 and ++++ denotes a % inhibition of 80-99. In some cases, antagonist activity was assessed at lower concentrations, for example, at 8.3, 2.8, or less than 1 μM.
TLR8 antagonist activity was measured in a hTLR8 assay format, measuring IC50 values. Compounds were incubated with hTLR8 reporter cells for two hours, then 1 μM Compound A was added to induce TLR8 overnight. IC50 were then calculated.

The mark [3] stands for this setting: IC50, nM, vs. VTX-378 1 μM, agonist VTX-378 at 1 μM.

Read-outs that look alike come from different tables or passages of the source.

Consider `CCCN(CCC)C(=O)C1=Cc2cc(-c3ccc(C(=O)N4CCCC4)cc3)ccc2N=C(N)C1` [Compound 2987], for which, in assay [1], the “inhibition of IL-8 production” value is recorded as “reduced in a dose dependent fashion”. Also, the half-maximal inhibitory concentration (IC50) in assay [2] (setting [3]) is below 1000 nM; in assay [2] (IC50, nM, vs. VTX-378 10 μM, agonist VTX-378 at 10 μM) it was 1000 to 10000 nM.
On to `CCOC(=O)C1=Cc2cc(-c3ccc(C(=O)N4CCCC4)cc3)ccc2N=C(N)C1(C)C` [Compound 3348], for which the “inhibition of IL-8 production” value in assay [1] is “reduced in a dose dependent fashion”. For the same compound, the IC50 was below 1000 nM in assay [2] (IC50, nM, vs. 3M002 10 μM, agonist 3M002 at 10 μM); below 1000 nM in assay [2] (setting [3]); below 1000 nM in assay [2] (agonist VTX-378 at 0.5 μM, read-out: IC50, nM, vs. VTX-378 0.5 μM).
